Test system: not listed separately
Experiment: terminal elimination half-life for the compound was evaluated after oral administration of a dose of 1 mg/kg in a group of eight conscious dogs
Assay type: ADME, organism-based, Canis lupus familiaris
Parameters: dose 1 mg/kg, route oral
Conditions: dog, in vivo

Work on `CCOC(=O)C[C@H](NC(=O)CN1C(=O)N[C@@](C)(c2ccc(C(=N)N)cc2)C1=O)c1ccccc1.O=C(O)/C=C\C(=O)O` [CARAFIBAN MALEATE] yielded a half-life of 9.9 h.

Target: T1, Integrin alpha-IIb/beta-3 (Homo sapiens, UniProt P05106+P08514)
Experiment: Inhibition of 125 I-fibrinogen binding to glycoprotein IIb/IIIa receptor
Assay type: protein-complex assay
Conditions: not given

T1 sequence (P05106 27-788 limits assumed): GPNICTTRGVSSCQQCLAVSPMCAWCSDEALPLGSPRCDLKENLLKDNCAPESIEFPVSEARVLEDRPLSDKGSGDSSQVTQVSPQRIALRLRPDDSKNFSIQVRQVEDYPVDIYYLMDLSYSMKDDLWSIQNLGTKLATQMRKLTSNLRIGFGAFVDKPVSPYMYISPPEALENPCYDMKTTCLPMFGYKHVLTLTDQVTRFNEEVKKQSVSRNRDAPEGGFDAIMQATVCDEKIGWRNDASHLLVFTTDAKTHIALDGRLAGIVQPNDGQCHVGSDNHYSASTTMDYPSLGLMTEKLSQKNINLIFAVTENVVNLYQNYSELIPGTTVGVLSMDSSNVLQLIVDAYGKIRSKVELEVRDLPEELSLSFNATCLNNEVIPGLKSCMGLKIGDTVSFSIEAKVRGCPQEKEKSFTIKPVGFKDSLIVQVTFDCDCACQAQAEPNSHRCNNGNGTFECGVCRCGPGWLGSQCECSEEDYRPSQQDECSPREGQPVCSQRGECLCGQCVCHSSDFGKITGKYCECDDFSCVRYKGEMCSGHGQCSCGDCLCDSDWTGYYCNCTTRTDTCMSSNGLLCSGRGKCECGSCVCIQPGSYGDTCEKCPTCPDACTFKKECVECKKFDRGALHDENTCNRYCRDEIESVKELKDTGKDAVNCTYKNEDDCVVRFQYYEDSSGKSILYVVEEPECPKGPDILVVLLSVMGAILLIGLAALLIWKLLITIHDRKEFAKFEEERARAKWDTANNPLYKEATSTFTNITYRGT
T1 sequence (P08514 32-887 limits assumed): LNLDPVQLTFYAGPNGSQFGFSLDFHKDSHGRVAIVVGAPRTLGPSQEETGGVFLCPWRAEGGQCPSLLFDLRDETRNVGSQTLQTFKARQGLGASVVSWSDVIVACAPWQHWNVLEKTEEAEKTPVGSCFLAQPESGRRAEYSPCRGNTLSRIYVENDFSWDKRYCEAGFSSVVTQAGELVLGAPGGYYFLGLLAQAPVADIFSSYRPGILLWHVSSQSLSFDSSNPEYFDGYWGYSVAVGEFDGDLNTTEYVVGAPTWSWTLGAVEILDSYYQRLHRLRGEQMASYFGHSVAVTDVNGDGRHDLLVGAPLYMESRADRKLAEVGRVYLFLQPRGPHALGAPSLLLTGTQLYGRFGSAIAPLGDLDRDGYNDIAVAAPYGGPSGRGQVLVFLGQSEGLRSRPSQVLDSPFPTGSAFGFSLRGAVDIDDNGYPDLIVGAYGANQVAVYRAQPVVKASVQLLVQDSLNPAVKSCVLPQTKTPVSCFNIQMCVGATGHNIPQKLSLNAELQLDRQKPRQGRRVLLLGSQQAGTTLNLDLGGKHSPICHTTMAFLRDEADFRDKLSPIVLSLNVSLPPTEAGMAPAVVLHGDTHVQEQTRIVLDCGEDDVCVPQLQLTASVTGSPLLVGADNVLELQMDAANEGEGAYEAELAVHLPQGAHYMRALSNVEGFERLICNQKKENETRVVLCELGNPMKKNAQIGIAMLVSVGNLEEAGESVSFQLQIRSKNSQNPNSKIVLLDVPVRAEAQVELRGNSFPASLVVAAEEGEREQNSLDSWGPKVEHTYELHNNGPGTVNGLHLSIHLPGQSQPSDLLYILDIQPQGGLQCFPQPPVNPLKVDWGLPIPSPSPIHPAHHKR
T1 sequence (P08514 891-1039 limits assumed): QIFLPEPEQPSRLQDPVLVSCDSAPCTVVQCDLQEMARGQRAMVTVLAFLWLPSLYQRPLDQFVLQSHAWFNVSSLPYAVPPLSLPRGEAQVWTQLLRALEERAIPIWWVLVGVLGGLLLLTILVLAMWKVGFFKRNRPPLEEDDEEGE

`N=C(N)Nc1ccc(C2NC(=O)N(CC(=O)N[C@@H](CC(=O)O)C(=O)N[C@H](C(=O)O)c3ccccc3)C2=O)cc1` (stereo partly drawn) showed a Ki of 30 nM.

Species: Homo sapiens
Experiment: Inhibition of human platelet (isolated from PRP) aggregation
Assay type: functional
Conditions: not given

In the case of `CC1(c2ccc(C(=N)N)cc2)NC(=O)N(CC(=O)N[C@@H](CC(=O)O)C(=O)N[C@H](C(=O)O)c2ccccc2)C1=O` (stereo in doubt; 17), the IC50 is reported as 800 nM.
Work on `CC1(c2ccc(C(=N)N)cc2)NC(=O)N(CC(=O)N[C@@H](CC(=O)O)C(=O)N[C@H](C(=O)O)c2ccccc2)C1=O` (stereo in doubt; 16) yielded an IC50 of 40 nM.

Same assay, conditions: Homo sapiens

Going from `N=C(N)c1ccc(CC2NC(=O)N(CC(=O)N[C@@H](CC(=O)O)C(=O)N[C@H](C(=O)O)c3ccccc3)C2=O)cc1` (stereo partly drawn) to `N=C(N)Nc1ccc(CC2NC(=O)N(CC(=O)N[C@@H](CC(=O)O)C(=O)N[C@H](C(=O)O)c3ccccc3)C2=O)cc1` (stereo partly drawn), the IC50 rises from 200 nM to 5500 nM (28-fold). The first is the more potent here.

Compared with `N=C(N)c1ccc(C2(Cc3ccccc3)NC(=O)N(CC(=O)N[C@@H](CC(=O)O)C(=O)N[C@H](C(=O)O)c3ccccc3)C2=O)cc1` (stereo partly drawn), `CCC1(c2ccc(C(=N)N)cc2)NC(=O)N(CC(=O)N[C@@H](CC(=O)O)C(=O)N[C@H](C(=O)O)c2ccccc2)C1=O` (stereo partly drawn) is 2-fold lower in IC50: 50 nM for the first, 25 nM for the second.

First: CC(C)[C@H](NC(=O)[C@H](CC(=O)O)NC(=O)CN1C(=O)N[C@@H](CCCN=C(N)N)C1=O)C(=O)O
Second: CC(C)C[C@H](NC(=O)[C@H](CC(=O)O)NC(=O)CN1C(=O)N[C@@H](CCCN=C(N)N)C1=O)C(=O)O
The IC50 of the first is 3-fold lower: 1000 nM for the first, 3000 nM for the second. The first is the more potent here.

Compared with `N=C(N)NCCC[C@@H]1NC(=O)N(CC(=O)N[C@@H](CC(=O)O)C(=O)N[C@@H](Cc2ccccc2)C(=O)O)C1=O`, `N=C(N)NCCC[C@@H]1NC(=O)N(CC(=O)N[C@@H](CC(=O)O)C(=O)N[C@H](C(=O)O)C2CCCCC2)C1=O` is 6.7-fold lower in IC50: 10000 nM for the first, 1500 nM for the second. The second is the more potent here.

Compared with `N=C(N)Nc1cccc(C2NC(=O)N(CC(=O)N[C@@H](CC(=O)O)C(=O)N[C@H](C(=O)O)c3ccccc3)C2=O)c1` (stereo partly drawn), `N=C(N)Nc1ccc(C2NC(=O)N(CC(=O)N[C@@H](CC(=O)O)C(=O)N[C@H](C(=O)O)c3ccccc3)C2=O)cc1` (stereo partly drawn) is 30-fold lower in IC50: 6000 nM for the first, 200 nM for the second.

Compared with `CC1(c2ccc(C(=N)N)cc2)NC(=O)N(CC(=O)N[C@@H](CC(=O)O)C(=O)NC2C3CC4CC(C3)CC2C4)C1=O` (stereo partly drawn), `COC(=O)[C@@H](NC(=O)[C@H](CC(=O)O)NC(=O)CN1C(=O)NC(C)(c2ccc(C(=N)N)cc2)C1=O)c1ccccc1` (stereo partly drawn) is 2.8-fold higher in IC50: 25 nM for the first, 70 nM for the second. The first is the more potent here.

`CC1(c2ccc(CN)cc2)NC(=O)N(CC(=O)N[C@@H](CC(=O)O)C(=O)N[C@H](C(=O)O)c2ccccc2)C1=O` (stereo partly drawn) and `CC1(c2ccc(NC(=N)N)cc2)NC(=O)N(CC(=O)N[C@@H](CC(=O)O)C(=O)N[C@H](C(=O)O)c2ccccc2)C1=O` (stereo partly drawn) are the same in IC50: 150 nM for the first, 150 nM for the second.

Compared with `N=C(N)c1ccc(/C=C2/NC(=O)N(CC(=O)N[C@@H](CC(=O)O)C(=O)N[C@H](C(=O)O)c3ccccc3)C2=O)cc1`, `N=C(N)c1ccc(C2(C3CC3)NC(=O)N(CC(=O)N[C@@H](CC(=O)O)C(=O)N[C@H](C(=O)O)c3ccccc3)C2=O)cc1` (stereo partly drawn) is 7.5-fold lower in IC50: 150 nM for the first, 20 nM for the second. The second is the more potent here.

First: CCN1C(=O)N(CC(=O)NC(CC(=O)O)c2ccccc2)C(=O)C1(C)c1ccc(C(=N)N)cc1 (stereo not drawn)
Second: CC1(c2ccc(C(=N)N)cc2)NC(=O)N(CC(=O)NCC(NC(=O)OCc2ccccc2)C(=O)O)C1=O (stereo not drawn)
The IC50 of the first is 1.7-fold higher: 500 nM for the first, 300 nM for the second. The second is the more potent here.

Target: T1, Integrin alpha-IIb/beta-3
Experiment: Inhibition of 125 I-fibrinogen binding to ADP-activated gel filtered human platelets
Conditions: not given

`N=C(N)NCCC[C@@H]1NC(=O)N(CC(=O)N[C@@H](CC(=O)O)C(=O)N[C@H](C(=O)O)c2ccccc2)C1=O` gave a Ki of 120 nM.
